Key:
[1] = target: EGFR (UniProt P00533)
[2] = target: EGFR (human) (UniProt P00533); settings: her 14
Chain of EGFR (human) (P00533 whole entry, looked up): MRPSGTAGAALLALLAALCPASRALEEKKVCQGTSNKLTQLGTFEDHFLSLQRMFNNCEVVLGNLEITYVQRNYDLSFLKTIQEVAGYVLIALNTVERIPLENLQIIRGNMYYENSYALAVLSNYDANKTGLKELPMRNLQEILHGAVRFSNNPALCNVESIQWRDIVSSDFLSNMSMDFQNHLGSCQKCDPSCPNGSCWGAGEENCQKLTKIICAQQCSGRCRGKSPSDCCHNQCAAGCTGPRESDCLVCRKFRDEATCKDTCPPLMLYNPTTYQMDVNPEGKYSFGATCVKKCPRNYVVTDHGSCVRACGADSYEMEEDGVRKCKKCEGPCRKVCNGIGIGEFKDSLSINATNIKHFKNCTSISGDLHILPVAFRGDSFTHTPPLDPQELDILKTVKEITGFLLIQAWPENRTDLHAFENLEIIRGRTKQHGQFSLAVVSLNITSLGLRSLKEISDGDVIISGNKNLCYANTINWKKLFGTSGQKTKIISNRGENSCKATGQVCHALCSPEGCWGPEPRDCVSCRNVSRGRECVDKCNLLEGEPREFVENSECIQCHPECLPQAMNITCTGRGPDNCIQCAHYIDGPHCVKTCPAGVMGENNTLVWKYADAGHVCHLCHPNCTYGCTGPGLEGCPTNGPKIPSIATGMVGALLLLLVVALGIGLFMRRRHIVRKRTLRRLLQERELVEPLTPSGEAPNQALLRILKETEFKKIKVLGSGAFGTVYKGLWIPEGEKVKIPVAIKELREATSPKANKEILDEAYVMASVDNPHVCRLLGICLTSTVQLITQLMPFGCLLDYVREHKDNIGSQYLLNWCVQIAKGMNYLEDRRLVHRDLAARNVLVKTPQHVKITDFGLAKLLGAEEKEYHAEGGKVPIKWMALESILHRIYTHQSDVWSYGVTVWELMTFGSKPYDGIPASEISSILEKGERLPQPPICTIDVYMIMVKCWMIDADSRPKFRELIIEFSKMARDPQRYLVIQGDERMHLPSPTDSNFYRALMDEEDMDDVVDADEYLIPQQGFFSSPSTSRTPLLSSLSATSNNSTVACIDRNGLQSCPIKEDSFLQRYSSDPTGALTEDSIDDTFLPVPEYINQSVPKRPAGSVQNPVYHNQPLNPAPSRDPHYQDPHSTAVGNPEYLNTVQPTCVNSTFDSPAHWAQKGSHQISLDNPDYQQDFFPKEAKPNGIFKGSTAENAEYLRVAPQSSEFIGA

Chain of EGFR (P00533 whole entry, looked up): as above

SMILES	IC50 [1]	IC50 [2]
COc1cc(/C=C(\C#N)C(=O)c2ccc(C)cc2)cc(CSCc2ccccc2)c1O	4.5 µM	
COc1cc(/C=C(\C#N)C(N)=O)cc(CSc2ccccn2)c1O		16 µM
COc1cc(C=C(C#N)C#N)cc(CSCC(=O)O)c1O		> 50 µM
N#C/C(=C\c1cc(O)c(O)c(CSc2nc3ccccc3s2)c1)C(N)=O		> 50 µM
COc1cc(/C=C(\C#N)C(N)=O)cc(CSCc2ccccc2)c1O		12.5 µM
COc1cc(/C=C(\C#N)C(N)=O)cc(CSc2nc3ccccc3[nH]2)c1O		35 µM
COc1cc(/C=C(\C#N)C(N)=O)cc(CSCc2ccc(Cl)cc2)c1O		20 µM
COc1cc(C=C(C#N)C#N)cc(CSc2ccccc2C(=O)O)c1O		> 50 µM
COc1cc(C=C(C#N)C#N)cc(CS(=O)(=O)c2ccc(C)cc2)c1O		15 µM
COc1cc(/C=C(\C#N)C(N)=O)cc(CSc2ccccc2C(=O)O)c1O		> 50 µM
Cc1cc(C=C(C#N)C#N)cc(O)c1O		13 µM

The remaining compounds from weak to strong by IC50 [2], led by results:

IC50 [1]	IC50 [2]	SMILES
	12.5 µM	COc1cc(/C=C(\C#N)C(N)=O)cc(CSc2ccccc2)c1O
	10 µM	COc1cc(/C=C(\C#N)C(N)=O)cc(CSc2ccc3ccccc3c2)c1O
	10 µM	COc1cc(/C=C(\C#N)C(N)=O)cc(CSCc2ccccc2Cl)c1O
	9 µM	COc1cc(/C=C(\C#N)C(N)=O)cc(CSc2ccccc2NC(C)=O)c1O
	6 µM	COc1cc(/C=C(\C#N)C(N)=O)cc(CSc2nc3ccccc3o2)c1O
	6 µM	COc1cc(C=C(C#N)C#N)cc(CSc2ccccc2)c1O
	3 µM	N#C/C(=C\c1cc(O)c(O)c(CSCc2ccccc2)c1)C(N)=O
	2 µM	COc1cc(/C=C(\C#N)C(=O)c2ccc(O)c(O)c2)cc(CSCc2ccccc2)c1O
	2 µM	COc1cc(/C=C(\C#N)C(N)=O)cc(CSc2ccc(O)cc2)c1O

Source: the Kinase Knowledgebase extract (Sharma et al. 2016)
